Results reported in ChEMBL document CHEMBL1201862, “PubChem BioAssay data set” (2004).
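Dose response: 5 concentrations. Exposure: 48 h. Format: 96-well plates. Endpoint: linear interpolation; highest concentration if not reached. Here, GI50 denotes the concentration required for 50% inhibition of growth.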 The source made the active and inactive calls. Cut-off read from the data, not from the text of the source: active = GI50 up to about 1.1 µM and inactive = higher.

Columns and labels:
Assay in all cases: growth of human tumour cells (NCI), 48 h
SR = test system: SR
DU-145 = test system: DU-145
MCF7 = test system: MCF7
SNB-75 = test system: SNB-75
SK-MEL-5 = test system: SK-MEL-5
COLO 205 = test system: COLO 205
NCI-H23 = test system: NCI-H23
786-0 = test system: 786-0
HCT-116 = test system: HCT-116
SW-620 = test system: SW-620
TK-10 = test system: TK-10
UACC-257 = test system: UACC-257
UACC-62 = test system: UACC-62
LOX IMVI = test system: LOX IMVI
SK-OV-3 = test system: SK-OV-3
NCI/ADR-RES = test system: NCI/ADR-RES
SNB-19 = test system: SNB-19
Hs-578T = test system: Hs-578T
NCI-H460 = test system: NCI-H460
RXF 393 = test system: RXF 393

Measured: GI50

COc1ccc2c(c1)OCC1Cc3ccccc3OC21 (stereo not given)
inactive: SR > 100 µM | DU-145 > 100 µM | MCF7 > 100 µM | SNB-75 > 100 µM | SK-MEL-5 > 10 µM | COLO 205 > 100 µM | NCI-H23 > 100 µM | 786-0 > 100 µM | HCT-116 > 100 µM | SW-620 > 100 µM | TK-10 > 100 µM | UACC-257 52 µM | UACC-62 > 100 µM | LOX IMVI > 100 µM | SK-OV-3 > 100 µM | NCI/ADR-RES > 100 µM

CN1C(=O)C(=CNc2ccc(Cl)cc2Cl)C(=O)N(C)C1=O
inactive: SR > 100 µM | SNB-19 > 100 µM | MCF7 > 100 µM | Hs-578T > 100 µM | SNB-75 > 100 µM | SK-MEL-5 > 100 µM | COLO 205 > 100 µM | NCI-H23 > 100 µM | 786-0 > 100 µM | HCT-116 > 100 µM | SW-620 > 100 µM | TK-10 > 100 µM | UACC-257 > 100 µM | UACC-62 > 100 µM | LOX IMVI > 100 µM | SK-OV-3 > 100 µM | NCI/ADR-RES > 100 µM | NCI-H460 > 100 µM | RXF 393 > 100 µM

Cc1cc(Cl)ccc1NC(=O)C(=O)C(C(=O)c1ccccc1)C1OC(=O)c2ccccc21 (stereo not given)
inactive: SR > 100 µM | SNB-19 > 100 µM | SNB-75 > 100 µM | SK-MEL-5 > 100 µM | COLO 205 > 100 µM | NCI-H23 > 100 µM | 786-0 > 100 µM | HCT-116 > 100 µM | SW-620 > 100 µM | TK-10 > 100 µM | UACC-257 > 100 µM | UACC-62 > 100 µM | LOX IMVI > 100 µM | SK-OV-3 > 100 µM | NCI-H460 > 100 µM | RXF 393 > 100 µM

NS(=O)(=O)c1nnc(NS(=O)(=O)C(F)(F)F)s1
inactive: SR 46.7 µM | SNB-19 > 100 µM | DU-145 > 100 µM | MCF7 > 100 µM | SNB-75 > 100 µM | COLO 205 > 100 µM | NCI-H23 77.3 µM | 786-0 > 100 µM | HCT-116 > 100 µM | SW-620 > 100 µM | TK-10 > 100 µM | UACC-62 > 100 µM | SK-OV-3 > 100 µM | NCI/ADR-RES > 100 µM | NCI-H460 > 100 µM | RXF 393 > 100 µM

CC12CC(C/C1=N/O)C(C)(C)C2 (stereo not given)
inactive: SNB-19 > 100 µM | DU-145 > 100 µM | MCF7 > 100 µM | Hs-578T > 100 µM | SNB-75 > 100 µM | SK-MEL-5 > 100 µM | COLO 205 > 100 µM | NCI-H23 > 100 µM | 786-0 > 100 µM | HCT-116 > 100 µM | SW-620 > 100 µM | TK-10 > 100 µM | UACC-257 > 100 µM | UACC-62 > 100 µM | SK-OV-3 > 100 µM | NCI-H460 > 100 µM | RXF 393 > 100 µM

CCCCCCC(C)CC(CCCCCC)NCCOC(=O)c1ccc([N+](=O)[O-])cc1 (stereo not given)
inactive: SNB-19 15.6 µM | DU-145 12.2 µM | MCF7 7.16 µM | Hs-578T 17.2 µM | SNB-75 16 µM | SK-MEL-5 9.68 µM | COLO 205 3.18 µM | NCI-H23 14.6 µM | 786-0 12.6 µM | HCT-116 8.18 µM | SW-620 12.8 µM | TK-10 10.6 µM | UACC-257 4.98 µM | UACC-62 13 µM | LOX IMVI 4.12 µM | SK-OV-3 14.9 µM | NCI/ADR-RES 13.4 µM

COC(=O)/C=C/C1C(C(=O)OC)C2(C(=O)OC)CCC1(C(=O)OC)N2 (stereo not given)
inactive: SR > 100 µM | SNB-19 > 100 µM | SNB-75 > 100 µM | SK-MEL-5 > 100 µM | COLO 205 > 100 µM | NCI-H23 > 100 µM | 786-0 > 100 µM | HCT-116 > 100 µM | SW-620 > 100 µM | TK-10 > 100 µM | UACC-257 > 100 µM | UACC-62 > 100 µM | LOX IMVI > 100 µM | SK-OV-3 > 100 µM | NCI-H460 > 100 µM | RXF 393 > 100 µM

COc1ccc(Oc2cccc(/C=C3/C(=O)Nc4ccccc43)c2)cc1
inactive: SNB-19 6.1 µM | DU-145 14.1 µM | MCF7 3.41 µM | Hs-578T 15.4 µM | SNB-75 15 µM | SK-MEL-5 2.62 µM | COLO 205 3.73 µM | NCI-H23 3.23 µM | 786-0 11.8 µM | HCT-116 3.6 µM | SW-620 11.1 µM | TK-10 15.2 µM | UACC-257 5.79 µM | SK-OV-3 13.8 µM | NCI/ADR-RES 4.91 µM | NCI-H460 11.3 µM | RXF 393 3.94 µM

C/C=C(C)/C=C/CC(C)CCC=C(C)C (stereo not given)
inactive: SR > 100 µM | SNB-19 > 100 µM | DU-145 > 100 µM | MCF7 > 100 µM | SNB-75 > 100 µM | SK-MEL-5 > 100 µM | COLO 205 > 100 µM | 786-0 > 100 µM | HCT-116 > 100 µM | SW-620 > 100 µM | TK-10 > 100 µM | UACC-257 > 100 µM | UACC-62 > 100 µM | LOX IMVI > 100 µM | SK-OV-3 > 100 µM | NCI/ADR-RES > 100 µM | NCI-H460 > 100 µM | RXF 393 > 100 µM

c1ccc2c(c1)CC1=C(O2)c2ccccc2OC1
inactive: SR 20.4 µM | DU-145 35.9 µM | MCF7 > 100 µM | SK-MEL-5 22.4 µM | COLO 205 18.9 µM | NCI-H23 40.9 µM | 786-0 16.6 µM | HCT-116 16.4 µM | SW-620 19.8 µM | TK-10 33.2 µM | UACC-257 28.2 µM | UACC-62 26.2 µM | LOX IMVI 17.9 µM | SK-OV-3 > 100 µM | NCI/ADR-RES 36.6 µM

C=C1C(=O)OC2C1C(OC(=O)/C(C)=C\C)CC1(CO1)C1C(O)C=C(C)C21O (stereo not given)
inactive: SR 4.83 µM | SNB-19 20.7 µM | SNB-75 10.6 µM | SK-MEL-5 4.28 µM | COLO 205 1.17 µM | NCI-H23 7.19 µM | 786-0 2.96 µM | HCT-116 1.53 µM | SW-620 1.58 µM | TK-10 3.44 µM | UACC-257 9.73 µM | UACC-62 1.74 µM | LOX IMVI 14.4 µM | SK-OV-3 16.7 µM | NCI-H460 14.3 µM | RXF 393 2.73 µM

CCCc1ccc(/N=C\c2cc(OC)c(OC)c(OC)c2)cc1
inactive: SR 55.5 µM | SNB-19 > 100 µM | SNB-75 > 100 µM | SK-MEL-5 > 100 µM | COLO 205 > 31.6 µM | NCI-H23 > 100 µM | 786-0 > 100 µM | HCT-116 > 63.4 µM | SW-620 > 100 µM | TK-10 > 100 µM | UACC-257 > 100 µM | UACC-62 > 100 µM | LOX IMVI > 52.1 µM | SK-OV-3 > 100 µM | NCI-H460 > 100 µM | RXF 393 > 100 µM

c1ccc2sc(C3(N4CCCC4)CCCCCC3)cc2c1
inactive: SR 18.8 µM | SNB-19 14 µM | DU-145 22.4 µM | MCF7 18.4 µM | SNB-75 13.5 µM | SK-MEL-5 16.6 µM | COLO 205 14 µM | NCI-H23 18 µM | 786-0 14.1 µM | HCT-116 12.5 µM | SW-620 16.9 µM | TK-10 17.4 µM | UACC-257 16 µM | UACC-62 16.2 µM | LOX IMVI 14.7 µM | SK-OV-3 16.8 µM | NCI/ADR-RES 19.7 µM | NCI-H460 13.3 µM | RXF 393 12.3 µM

C[C@H](C/C=C/C(C)(C)O)[C@H]1CC[C@@]2(C)[C@@H]3CC[C@H]4C(C)(C)[C@@H](O)CC[C@@]45C[C@@]35CC[C@]12C
inactive: SNB-19 25.5 µM | DU-145 15.4 µM | MCF7 35.2 µM | Hs-578T 11.2 µM | SNB-75 20.3 µM | 786-0 20.9 µM | HCT-116 18.2 µM | SW-620 18.4 µM | TK-10 13 µM | UACC-257 17.9 µM | UACC-62 26.1 µM | LOX IMVI 11.7 µM | SK-OV-3 32.1 µM | NCI/ADR-RES 5.14 µM | NCI-H460 23 µM

C[C@]12CCc3nn(-c4ccccc4)nc3C1CC[C@@H]1C2CC[C@]2(C)C(=O)CCC12 (stereo not given in full)
inactive: SR > 100 µM | SNB-19 > 100 µM | SNB-75 > 100 µM | SK-MEL-5 > 100 µM | COLO 205 > 100 µM | NCI-H23 > 100 µM | 786-0 > 100 µM | HCT-116 > 100 µM | SW-620 > 100 µM | TK-10 > 100 µM | UACC-257 > 100 µM | UACC-62 > 100 µM | LOX IMVI 82.2 µM | SK-OV-3 > 100 µM | NCI-H460 > 100 µM | RXF 393 > 100 µM

Nc1c([N+](=O)[O-])nc(Cl)c2nncn12
inactive: SR 19.9 µM | SNB-19 > 100 µM | SNB-75 > 23.7 µM | SK-MEL-5 > 100 µM | COLO 205 > 43 µM | NCI-H23 > 100 µM | 786-0 > 87.7 µM | HCT-116 > 45 µM | SW-620 > 100 µM | TK-10 > 100 µM | UACC-257 > 100 µM | UACC-62 > 100 µM | LOX IMVI > 43.8 µM | SK-OV-3 > 100 µM | NCI-H460 > 56.6 µM | RXF 393 > 100 µM
